The source of these data is article PMC2924402, “Insights into the Mechanism of Ligand Binding to Octopine Dehydrogenase from Pecten maximus by NMR and Crystallography” (PLoS ONE, 2010).

The Kd is the concentration at which binding is half-saturated. A word on the Ki: it is a dissociation constant, usually derived from enzyme kinetics or from competition with a known ligand. Low readings indicate a stronger hold on the target, high ones a looser hold on the target.

For test [1], the target named is T1, Octopine dehydrogenase (OcDH) (Pecten maximus, UniProt Q9BHM6).
T1 construct: gene odh1; OcDH-His5, U-[15N] labeled
Briefly: 1H-15N TROSY-HSQC NMR titration of OcDH saturated with […] NADH. Format: binding.

Test [2] addresses T1, Octopine dehydrogenase (OcDH). The test can be described thus: 1H-15N TROSY-HSQC NMR titration; also present in the OcDH/NADH/agmatine crystal structure. Format: binding.
Test [3] has the same target. The test can be described thus: 1H-15N TROSY-HSQC NMR titration. In kind it is binding.
Test [4] deals with T2, Octopine dehydrogenase (OcDH) (Pecten maximus, UniProt Q9BHM6).
T2 construct: gene odh1; OcDH-His5, residues 2–404 in the model
T2 sequence (Q9BHM6 1-399): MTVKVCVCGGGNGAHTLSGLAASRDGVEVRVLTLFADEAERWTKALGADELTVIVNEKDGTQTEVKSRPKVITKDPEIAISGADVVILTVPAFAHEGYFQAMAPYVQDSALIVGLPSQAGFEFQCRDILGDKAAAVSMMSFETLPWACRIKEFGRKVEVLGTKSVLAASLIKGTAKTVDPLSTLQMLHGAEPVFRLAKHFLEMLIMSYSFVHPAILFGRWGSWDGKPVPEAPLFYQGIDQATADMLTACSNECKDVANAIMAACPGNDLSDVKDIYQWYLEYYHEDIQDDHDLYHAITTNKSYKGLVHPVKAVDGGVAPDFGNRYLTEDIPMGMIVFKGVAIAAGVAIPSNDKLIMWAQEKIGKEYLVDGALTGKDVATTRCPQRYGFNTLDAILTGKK
Briefly: X-ray crystal structure ([…] Å, soak) of OcDH/NADH/agmatine; Ki from enzyme inhibition (Lineweaver-Burk). Format: biochemical.

In turn, `N=C(N)NCCC[C@H](N)C(=O)O` [L-arginine] came in with a Kd in test [1] of 4.1 ± 0.31 mM.
Turning to `NC(=O)C1=CN([C@@H]2O[C@H](COP(=O)(O)OP(=O)(O)OC[C@H]3O[C@@H](n4cnc5c(N)ncnc54)[C@H](O)[C@@H]3O)[C@@H](O)[C@H]2O)C=CC1` [NADH], binding in test [2] was put at a Kd of 62 ± 7 µM.
Take `NC(=O)c1ccc[n+]([C@@H]2O[C@H](COP(=O)([O-])OP(=O)(O)OC[C@H]3O[C@@H](n4cnc5c(N)ncnc54)[C@H](O)[C@@H]3O)[C@@H](O)[C@H]2O)c1` [NAD^+]: the Kd in test [3] turned out to be 400 ± 50 µM.
In turn, `N=C(N)NCCCCN` [agmatine] came in with a Ki in test [4] of 40 ± 2 mM.
